Test results: ChEMBL document CHEMBL1201862, “PubChem BioAssay data set” (2004)
Activity calls are given as the source filed them.

Key:
[1] = viability loss of HPDE-C7K cells – cell-based, fluorescence, HTS, primary screen (AID 431); format: functional; settings: Homo sapiens
[2] = HPDE-C7 pancreatic duct cell viability loss – fluorescence, HTS (AID 430); format: functional, cell-based; settings: Homo sapiens
Procathepsin L = Procathepsin L (Homo sapiens, UniProt P07711); test: CTSL1 protease inhibition – biochemical, QFRET, 1536-well, counter-screen for M1/M17 aminopeptidase inhibitor project, dose response (AID 2214)
Procathepsin L, sequence (P07711 whole entry): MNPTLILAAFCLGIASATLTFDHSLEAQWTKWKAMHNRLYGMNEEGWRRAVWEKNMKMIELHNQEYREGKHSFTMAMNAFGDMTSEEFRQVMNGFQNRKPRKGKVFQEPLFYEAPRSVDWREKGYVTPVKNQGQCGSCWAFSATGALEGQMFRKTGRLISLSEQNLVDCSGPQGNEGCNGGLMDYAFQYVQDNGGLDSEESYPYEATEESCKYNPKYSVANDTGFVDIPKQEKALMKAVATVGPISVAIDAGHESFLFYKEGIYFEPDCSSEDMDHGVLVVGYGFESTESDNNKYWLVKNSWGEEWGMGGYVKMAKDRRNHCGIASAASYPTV

Leucine aminopeptidase = molecular target: T1, Leucine aminopeptidase (Plasmodium falciparum 3D7, UniProt Q8IL11); test: P. falciparum M17LAP inhibitors, primary screen, biochemical, fluorogenic H-Leu-NHMec substrate, 1536-well (AID 1619); format: functional
T1 sequence (Q8IL11 whole entry): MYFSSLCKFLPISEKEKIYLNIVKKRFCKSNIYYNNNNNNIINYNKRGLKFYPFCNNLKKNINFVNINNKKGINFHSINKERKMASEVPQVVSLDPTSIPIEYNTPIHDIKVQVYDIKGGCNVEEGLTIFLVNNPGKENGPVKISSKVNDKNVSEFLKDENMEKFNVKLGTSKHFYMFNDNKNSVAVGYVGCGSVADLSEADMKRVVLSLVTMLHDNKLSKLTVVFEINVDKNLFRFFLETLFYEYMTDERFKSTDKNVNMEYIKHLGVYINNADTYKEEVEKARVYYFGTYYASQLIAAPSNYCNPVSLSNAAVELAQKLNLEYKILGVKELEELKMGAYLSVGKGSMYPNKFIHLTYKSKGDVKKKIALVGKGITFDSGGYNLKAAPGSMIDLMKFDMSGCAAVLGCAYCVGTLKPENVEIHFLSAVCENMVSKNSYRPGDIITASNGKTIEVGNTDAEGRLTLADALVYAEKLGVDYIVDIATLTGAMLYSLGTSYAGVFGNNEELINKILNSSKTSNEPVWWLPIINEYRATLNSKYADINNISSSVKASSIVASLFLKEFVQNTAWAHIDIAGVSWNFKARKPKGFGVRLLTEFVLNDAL

Aspartyl aminopeptidase = molecular target: T2, Aspartyl aminopeptidase (Plasmodium falciparum 3D7, UniProt Q8I2J3); test: Counterscreen for inhibitors of M1 and M17 aminopeptidases: QFRET-based biochemical high throughput dose response assay for inhibitors of the Plasmodium falciparum M18 Aspartyl Aminopeptidase (PFM18AAP). [Related PubChem assays: 1619 (Screening assay (M17LAP inhibitors).), 1445 (Screening assay (M1AAP inhibitors).)]
T2 sequence (Q8I2J3 whole entry): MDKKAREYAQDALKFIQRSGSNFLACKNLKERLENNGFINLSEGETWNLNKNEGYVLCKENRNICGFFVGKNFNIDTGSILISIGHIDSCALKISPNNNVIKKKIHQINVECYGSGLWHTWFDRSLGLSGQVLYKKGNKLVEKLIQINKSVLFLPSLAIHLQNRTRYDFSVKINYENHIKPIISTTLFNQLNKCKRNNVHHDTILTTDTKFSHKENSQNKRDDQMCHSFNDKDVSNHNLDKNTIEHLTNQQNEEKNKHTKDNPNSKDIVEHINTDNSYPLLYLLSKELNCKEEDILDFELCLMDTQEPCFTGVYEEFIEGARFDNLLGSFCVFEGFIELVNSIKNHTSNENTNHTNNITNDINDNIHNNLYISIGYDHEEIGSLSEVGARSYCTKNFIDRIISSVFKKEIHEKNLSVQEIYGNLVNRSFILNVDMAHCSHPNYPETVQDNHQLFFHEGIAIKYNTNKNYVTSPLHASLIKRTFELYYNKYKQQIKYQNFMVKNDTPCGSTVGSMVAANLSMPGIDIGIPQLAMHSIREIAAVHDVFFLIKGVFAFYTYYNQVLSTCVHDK

For `O=C(O)CCSc1nc2cc(Br)ccc2[nH]1`, the EC50 [1] was > 20 µM (not active) and the EC50 [2] was > 20 µM (not active).

In the case of `Cc1ccc(Nc2nnc(SC(C)C(=O)Nc3c(C)n(C)n(-c4ccccc4)c3=O)s2)cc1` (stereo not given), the IC50 (Procathepsin L) is reported as > 59.6 µM (not active), the IC50 (Leucine aminopeptidase) is reported as 3.86 µM (active) and the IC50 (Aspartyl aminopeptidase) is reported as > 73.5 µM (not active).
